Square brackets hold non-standard residues; d marks the D form. Peptide text beside a SMILES is read from it. Phe(3-F) = N[C@@H](Cc1cccc(F)c1)C(=O)O; hPhe = N[C@@H](CCc1ccccc1)C(=O)O; Abu = CC[C@H](N)C(=O)O; azaGly = NNC(=O)O
Assays:
CYP2C9 = target: T1, CYP2C9 (Homo sapiens, UniProt P11712); test: CYP2C9 assay (Vivid CYP2C9 Red Screening Kit); assay type: in vitro ADME; details: 20 μM cutoff; read-out: Metabolism: CYP enzymes (20 μM cutoff or IC50) CYP2C9
T1 construct: purchased PanVera Vivid CYP2C9 Red Screening Kit
T1 sequence (P11712 whole entry): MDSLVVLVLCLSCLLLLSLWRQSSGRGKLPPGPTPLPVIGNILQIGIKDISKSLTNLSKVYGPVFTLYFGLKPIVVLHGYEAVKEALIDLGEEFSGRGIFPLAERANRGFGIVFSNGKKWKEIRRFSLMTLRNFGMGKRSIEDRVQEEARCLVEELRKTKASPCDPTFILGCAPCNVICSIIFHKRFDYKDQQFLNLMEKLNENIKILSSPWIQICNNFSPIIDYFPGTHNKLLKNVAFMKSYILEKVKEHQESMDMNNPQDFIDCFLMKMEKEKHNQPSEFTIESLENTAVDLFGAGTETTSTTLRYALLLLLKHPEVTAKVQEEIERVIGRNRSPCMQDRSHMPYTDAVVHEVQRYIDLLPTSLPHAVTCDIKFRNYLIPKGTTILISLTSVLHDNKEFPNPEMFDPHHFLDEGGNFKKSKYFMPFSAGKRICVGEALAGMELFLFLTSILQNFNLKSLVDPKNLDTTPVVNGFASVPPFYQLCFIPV
Protocol: (§1) Tubes thawed on ice. 2× reaction buffer dispensed (room temperature) in two eppendorf tubes (for Mix A and Mix B).
(§2) Controls or compounds of the invention: Diluted to a concentration of 50 μM. Positive control compound: α-naphthoflavone.
(§3) Negative controls: DMSO and H2O.
(§4) Mix A: 485 μL reaction buffer, 10 μL regeneration system, 5 μL Baculosome reagent. Mixed gently and placed on ice.
(§5) Mix B: 88.5 μL reaction buffer, 1.5 μL substrate, 10 μL 10 mM NADP^+.
(§6) In a 96-well plate (Costar c-3904), 40 μL of 50 μM sample dispensed. 50 μl Mix A added. Incubated 20 min. at rt. Then, 10 μl of Mix B added. Fluorescence determined (Molecular Devices, SPECTRAmax Gemini EM): Ex: 409 nm, Em: 460 nm, at 37° C. for 20 min. (Automix: 5 s, top read.).
(§7) Following the procedure for CYP1A2, using the appropriate kits below, the effect of a compound of the invention on the other CYP enzymes was determined:
Vivid® CYP2C9 Red Screening Kit from PanVera.

Aspergillus DPP-IV = target: T2, Aspergillus DPP-IV (UniProt Q2UH35); test: Aspergillus DPP-IV assay; assay type: biochemical
T2 construct: Aspergillus DPP-IV (Enzyme System Products, SPE01)
T2 sequence (Q2UH35 1-771): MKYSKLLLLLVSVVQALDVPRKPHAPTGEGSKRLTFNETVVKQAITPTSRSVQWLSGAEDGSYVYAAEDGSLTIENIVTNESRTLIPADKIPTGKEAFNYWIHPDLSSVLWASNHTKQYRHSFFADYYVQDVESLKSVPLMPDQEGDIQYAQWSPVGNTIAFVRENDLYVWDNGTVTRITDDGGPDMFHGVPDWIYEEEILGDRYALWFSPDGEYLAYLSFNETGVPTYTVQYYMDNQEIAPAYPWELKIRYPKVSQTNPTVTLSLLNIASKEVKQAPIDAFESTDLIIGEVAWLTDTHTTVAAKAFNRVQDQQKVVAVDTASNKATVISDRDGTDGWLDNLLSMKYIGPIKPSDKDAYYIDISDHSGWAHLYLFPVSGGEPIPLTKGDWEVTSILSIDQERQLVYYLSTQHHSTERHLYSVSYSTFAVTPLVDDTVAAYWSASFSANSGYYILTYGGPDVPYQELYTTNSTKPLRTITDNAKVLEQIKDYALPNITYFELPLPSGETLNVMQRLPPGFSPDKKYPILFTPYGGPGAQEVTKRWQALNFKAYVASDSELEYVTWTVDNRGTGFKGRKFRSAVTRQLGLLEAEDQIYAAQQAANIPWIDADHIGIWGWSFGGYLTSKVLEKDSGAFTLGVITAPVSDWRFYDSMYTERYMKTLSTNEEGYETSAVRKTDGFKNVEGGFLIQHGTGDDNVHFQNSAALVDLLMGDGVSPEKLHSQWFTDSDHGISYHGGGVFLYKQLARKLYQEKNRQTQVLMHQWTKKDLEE
Protocol: Using this assay, the selectivity of a compound of the invention for hDPP-I over Aspergillus DPP-IV was determined, using a fluorogenic substrate.
Aspergillus DPP-IV (Enzyme System Products, SPE01; 5 mU dissolved in 25 μL assay buffer, giving a stock with a concentration of a 0.2 mU/μL). Prior to running experiment, 5 μL of enzyme stock solution was diluted to 0.004 mU/μL with 245 μL buffer.
Gly-Pro-AFC*TFA (Enzyme System Products AF039; 10 mg) was dissolved in 1 mL DMSO, giving a 20 mM solution. Diluted further in buffer to. 1 mM.
The assay was performed in 96-well plates. 60 μL assay buffer was added to the well followed-by 10 μL 1% DMSO in assay buffer (control) or a compound of the invention (100 μM, corresponding to 10 μM in the assay). Incubated at 37° C., then 10 μL enzyme (corresponding to 0.04 mU in assay) was added, followed by 10 μL substrate (100 μM in the assay). The excitation wavelength was 400 nm, and the emission was measured at 505 nm for 10-20 minutes at 30° C. Each measurement was made in duplicate. In the software (SOFTmax Pro) used for data collection from the fluorometer (Molecular Devices: Gemini XS), it was ensured that the measured slopes were linear (R^2>0.99). Data were exported to GraphPad Prism and nonlinear regression was performed using the option Sigmoidal dose-response (variable slope).

CYP2D6 = target: T3, CYP2D6 (Homo sapiens, UniProt P10635); test: CYP2D6 assay (Vivid CYP2D6 Cyan Screening Kit); assay type: in vitro ADME; details: 20 μM cutoff; read-out: Metabolism: CYP enzymes (20 μM cutoff or IC50) CYP2D6
T3 construct: purchased PanVera Vivid CYP2D6 Cyan Screening Kit
T3 sequence (P10635 whole entry): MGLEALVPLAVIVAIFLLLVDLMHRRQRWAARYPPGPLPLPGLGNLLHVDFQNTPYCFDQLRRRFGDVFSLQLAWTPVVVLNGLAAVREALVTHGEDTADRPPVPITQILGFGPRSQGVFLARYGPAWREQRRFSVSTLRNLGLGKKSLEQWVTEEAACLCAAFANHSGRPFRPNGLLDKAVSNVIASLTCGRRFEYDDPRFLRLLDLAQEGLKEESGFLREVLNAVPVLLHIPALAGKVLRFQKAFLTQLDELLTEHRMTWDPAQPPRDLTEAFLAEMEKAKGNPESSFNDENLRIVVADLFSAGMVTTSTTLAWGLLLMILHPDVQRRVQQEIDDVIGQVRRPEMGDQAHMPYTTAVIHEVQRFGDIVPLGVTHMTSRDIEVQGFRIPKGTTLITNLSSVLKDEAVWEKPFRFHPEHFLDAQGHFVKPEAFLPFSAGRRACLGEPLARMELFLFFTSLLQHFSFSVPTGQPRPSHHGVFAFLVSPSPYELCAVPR
Protocol: as §1, §2, §3, §4, §5, §6, §7
Vivid® CYP2D6 Cyan Screening Kit from PanVera.

CYP2C19 = target: T4, CYP2C19 (Homo sapiens, UniProt P33261); test: CYP2C19 assay (Vivid CYP2C19 Red Screening Kit); assay type: in vitro ADME; details: 20 μM cutoff; read-out: Metabolism: CYP enzymes (20 μM cutoff or IC50) CYP2C19
T4 construct: purchased PanVera Vivid CYP2C19 Red Screening Kit
T4 sequence (P33261 whole entry): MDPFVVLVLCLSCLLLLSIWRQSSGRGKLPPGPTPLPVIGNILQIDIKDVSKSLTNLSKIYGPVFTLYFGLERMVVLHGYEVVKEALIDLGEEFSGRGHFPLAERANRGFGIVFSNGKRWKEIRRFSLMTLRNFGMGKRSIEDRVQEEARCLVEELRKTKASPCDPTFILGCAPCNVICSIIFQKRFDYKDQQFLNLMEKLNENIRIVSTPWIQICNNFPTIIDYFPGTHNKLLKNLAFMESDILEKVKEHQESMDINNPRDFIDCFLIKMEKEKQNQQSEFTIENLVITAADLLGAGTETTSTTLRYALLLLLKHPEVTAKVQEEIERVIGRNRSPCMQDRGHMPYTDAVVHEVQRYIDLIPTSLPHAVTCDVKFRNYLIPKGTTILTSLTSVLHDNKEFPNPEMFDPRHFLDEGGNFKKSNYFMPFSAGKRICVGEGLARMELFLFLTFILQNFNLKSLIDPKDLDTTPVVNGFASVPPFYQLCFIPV
Protocol: as §1, §2, §3, §4, §5, §6, §7
Vivid® CYP2C19 Red Screening Kit from PanVera.

CC[C@H](N)C(=O)NNC(=O)N[C@@H](CCc1ccccc1)C(=O)N[C@@H](Cc1cccc(F)c1)C(N)=O [Example 11, 1-(2S-2-Aminobutanoyl)-4-[2S-N-[2S-3-(m-fluorophenyl)propan-2-yl-amide]-4-phenylbutan-2-yl-amide]semicarbazide] (H-[Abu][azaGly][hPhe][Phe(3-F)]-NH2)
IC50 (CYP2C9): > 20 µM | Inhibition of DPP-IV (in words) (Aspergillus DPP-IV): does not inhibit | IC50 (Aspergillus DPP-IV; Aspergillus DPP-IV, 10 μM cutoff, read-out: Secondary enzymatic screening (10 μM cutoff or IC50) DPP-IV): > 10 µM | IC50 (CYP2D6): > 20 µM | IC50 (CYP2C19): > 20 µM

— patent US20070155803A1, “Protease inhibitors” (ProZymex A/S, priority 2003, published 2007)
